According to paper PMC9199891 (Clinical and Translational Science, 2022):

Assay: Single-dose pharmacokinetics of omeprazole
Assay type: in vivo, healthy Chinese volunteers
Conditions: for AUC0-t / AUC0-∞ / Cmax: 20 mg single oral dose, mean ± SD; for Tmax: human, plasma, oral, 20 mg

AUC0-t (CYP2C19 *1/*1 (n = 263)): 466.2 ± 493.2 ng·h/mL | AUC0-∞ (CYP2C19 *1/*1 (n = 263)): 499.3 ± 498.4 ng·h/mL | Cmax (CYP2C19 *1/*1 (n = 263)): 309 ± 227 ng/mL | AUC0-t (CYP2C19 *1/*2 (n = 241)): 766.4 ± 529.4 ng·h/mL | AUC0-∞ (CYP2C19 *1/*2 (n = 241)): 817.8 ± 524.4 ng·h/mL | Cmax (CYP2C19 *1/*2 (n = 241)): 449 ± 309 ng/mL | AUC0-t (CYP2C19 *1/*3 (n = 48)): 707.8 ± 490.3 ng·h/mL | AUC0-∞ (CYP2C19 *1/*3 (n = 48)): 808.0 ± 545.9 ng·h/mL | Cmax (CYP2C19 *1/*3 (n = 48)): 440 ± 390 ng/mL | AUC0-t (CYP2C19 *1/*17 (n = 6)): 363.8 ± 232.6 ng·h/mL | AUC0-∞ (CYP2C19 *1/*17 (n = 6)): 366.5 ± 233.4 ng·h/mL | AUC0-t (CYP2C19 *2/*2 (n = 74)): 3379 ± 1421 ng·h/mL | AUC0-∞ (CYP2C19 *2/*2 (n = 74)): 3790 ± 1311 ng·h/mL | Cmax (CYP2C19 *2/*2 (n = 74)): 1130 ± 992 ng/mL | AUC0-t (CYP2C19 *2/*3 (n = 17)): 3908 ± 1560 ng·h/mL | AUC0-∞ (CYP2C19 *2/*3 (n = 17)): 4221 ± 1453 ng·h/mL | Cmax (CYP2C19 *2/*3 (n = 17)): 1040 ± 550 ng/mL | AUC0-t (CYP2C19 *2/*17 (n = 2)): 507.3 ± 150.3 ng·h/mL | AUC0-∞ (CYP2C19 *2/*17 (n = 2)): 693.0 ± 109.6 ng·h/mL | Cmax (CYP2C19 *2/*17 (n = 2)): 530 ± 344 ng/mL | AUC0-t (CYP2C19 *3/*3 (n = 2)): 3913 ± 493.0 ng·h/mL | AUC0-∞ (CYP2C19 *3/*3 (n = 2)): 4444 ± 793.4 ng·h/mL | Cmax (CYP2C19 *3/*3 (n = 2)): 884 ± 575 ng/mL | AUC0-t (CYP2C19 *3/*17 (n = 3)): 544.8 ± 14.52 ng·h/mL | AUC0-∞ (CYP2C19 *3/*17 (n = 3)): 547.0 ± 14.47 ng·h/mL | Cmax (CYP2C19 phenotype IM (n = 294)): 447 ± 322 ng/mL | AUC0-t (CYP2C19 phenotype NM (n = 263)): 466.16 ± 493.21 ng·h/mL | Cmax (CYP2C19 phenotype NM (n = 263)): 308 ± 227 ng/mL | AUC0-t (CYP2C19 phenotype PM (n = 93)): 3487.32 ± 1440.13 ng·h/mL | AUC0-∞ (CYP2C19 phenotype PM (n = 93)): 3883.09 ± 1331.02 ng·h/mL | Cmax (CYP2C19 phenotype PM (n = 93)): 1110 ± 916 ng/mL | AUC0-t (CYP2C19 phenotype RM (n = 6)): 363.77 ± 232.56 ng·h/mL | Cmax increase in PM (PM versus IM): 2.5 fold | Tmax (after administration in all groups (four phenotype groups)): 3.89 to 4.45 h | Tmax (after administration in all subjects (nine diplotype groups)): 1.33 to 4.6 h
SMILES: COc1ccc2[nH]c([S+]([O-])Cc3ncc(C)c(OC)c3C)nc2c1 (centres unmarked) [omeprazole]
